We go through 18 compounds from patent publication US12577206B2 (BRISTOL-MYERS SQUIBB COMPANY, priority 2020, dated 2026).

pEC50: −log10 of the molar value.

In one test the target is T1, human FPR2 (Homo sapiens, UniProt P25090).
T1 sequence (P25090 1-351): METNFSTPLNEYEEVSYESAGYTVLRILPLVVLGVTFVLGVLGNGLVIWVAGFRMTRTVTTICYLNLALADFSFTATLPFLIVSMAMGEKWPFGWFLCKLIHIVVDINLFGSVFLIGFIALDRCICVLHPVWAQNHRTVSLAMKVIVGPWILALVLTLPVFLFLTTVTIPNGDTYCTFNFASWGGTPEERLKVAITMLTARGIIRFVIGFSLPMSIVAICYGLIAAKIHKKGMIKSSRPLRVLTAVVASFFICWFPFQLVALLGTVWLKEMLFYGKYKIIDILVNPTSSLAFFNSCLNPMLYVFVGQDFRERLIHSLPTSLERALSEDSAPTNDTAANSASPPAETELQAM
As to the kind of experiment: FPR2 cyclic adenosine monophosphate (cAMP) assay. In kind it is cell-based. The settings on record: CHO cells overexpressing human FPR2; forskolin 5 μM; inhibition of cAMP production; HTRF; read-out: hFPR2 cAMP2 EC50. In short, it runs like this:
(§1)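 Gi-coupled activity is read as suppression of forskolin-stimulated cAMP (10 μM final for FPR1, 5 μM final for FPR2; IBMX 200 μM final) in recombinant CHO cells, 30 min incubation at rt, HTRF detection.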

Another test addresses T2, human FPR1 (Homo sapiens, UniProt P21462).
T2 sequence (P21462 1-350): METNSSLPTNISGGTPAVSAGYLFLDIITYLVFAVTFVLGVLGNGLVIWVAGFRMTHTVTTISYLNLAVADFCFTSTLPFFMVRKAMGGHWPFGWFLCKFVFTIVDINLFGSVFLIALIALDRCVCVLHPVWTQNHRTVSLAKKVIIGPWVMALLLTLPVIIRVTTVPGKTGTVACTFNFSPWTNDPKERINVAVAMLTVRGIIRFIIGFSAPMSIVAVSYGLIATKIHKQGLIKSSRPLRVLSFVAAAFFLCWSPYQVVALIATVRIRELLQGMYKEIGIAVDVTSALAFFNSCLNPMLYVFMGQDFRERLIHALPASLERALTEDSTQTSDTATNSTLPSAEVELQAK
As to the kind of experiment: FPR1 cyclic adenosine monophosphate (cAMP) assay. The class given is cell-based. The settings on record: CHO cells overexpressing human FPR1; forskolin 10 μM; inhibition of cAMP production; HTRF; read-out: hFPR1 cAMP2 EC50. In short, it runs like this:
as §1

Turning to `COc1cc(F)c(-c2c(NC(=O)c3ccc(OC(F)F)cc3)c(=O)n(-c3nc(N4CC5(CC(O)C5)C4)ccc3Cl)n2C)c(F)c1` [Example 299, N-[2-(3-chloro-6-{6-hydroxy-2-azaspiro[3.3]heptan-2-yl}pyridin-2-yl)-5-(2,6-difluoro-4-methoxyphenyl)-1-methyl-3-oxo-2,3-dihydro-1H-pyrazol-4-yl]-4-(difluoromethoxy)benzamide], the pEC50 was 8.10 at human FPR2 and under 5.30 on human FPR1.
On the same counts, the results for `COc1cc(F)c(-c2c(NC(=O)c3ccc(OC(F)F)cc3)c(=O)n(-c3nc(N4CC(O)C4)ccc3Cl)n2C)c(F)c1` [Example 300, N-{2-[3-chloro-6-(3-hydroxyazetidin-1-yl)pyridin-2-yl]-5-(2,6-difluoro-4-methoxyphenyl)-1-methyl-3-oxo-2,3-dihydro-1H-pyrazol-4-yl}-4-(difluoromethoxy)benzamide] are 8.15 and under 5.30.
As for `Cn1c(-c2ccc(C(F)(F)F)cc2)c(NC(=O)c2ccc(OC(F)F)cc2)c(=O)n1-c1ncccc1C(F)(F)F` [Example 301, 4-(difluoromethoxy)-N-{1-methyl-3-oxo-5-[4-(trifluoromethyl)phenyl]-2-[3-(trifluoromethyl)pyridin-2-yl]-2,3-dihydro-1H-pyrazol-4-yl}benzamide], the pEC50 on human FPR2 is 8.22; on human FPR1, 6.85.
The corresponding values for `COc1cc(F)c(-c2c(NC(=O)c3ccc(OC(F)F)cc3)c(=O)n(-c3nc(N4CCCC4C(F)(F)F)ccc3C(F)(F)F)n2C)c(F)c1` (stereo not drawn) [Example 302, N-[5-(2,6-difluoro-4-methoxyphenyl)-1-methyl-3-oxo-2-[3-(trifluoromethyl)-6-[2-(trifluoromethyl)pyrrolidin-1-yl]pyridin-2-yl]-2,3-dihydro-1H-pyrazol-4-yl]-4-(difluoromethoxy)benzamide] are 9.00 and 5.66.
The corresponding values for `COc1cc(F)c(-c2c(NC(=O)c3ccc(OC(F)F)cc3)c(=O)n(-c3nc(N4CCC(C(N)=O)C4)ccc3C(F)(F)F)n2C)c(F)c1` (stereo not drawn) [Example 303, 1-{6-[3-(2,6-difluoro-4-methoxyphenyl)-4-[4-(difluoromethoxy)benzamido]-2-methyl-5-oxo-2,5-dihydro-1H-pyrazol-1-yl]-5-(trifluoromethyl)pyridin-2-yl}pyrrolidine-3-carboxamide] are 9.00 and under 5.00.
On the same counts, the results for `Cn1c(-c2ccc(OC(F)(F)F)cc2)c(NC(=O)c2ccc(OC(F)F)cc2)c(=O)n1-c1ncccc1C(F)(F)F` [Example 304, 4-(difluoromethoxy)-N-{1-methyl-3-oxo-5-[4-(trifluoromethoxy)phenyl]-2-[3-(trifluoromethyl)pyridin-2-yl]-2,3-dihydro-1H-pyrazol-4-yl}benzamide] are 7.68 and 6.96.
With `COc1cc(F)c(-c2c(NC(=O)c3ccc(OC(F)F)cc3)c(=O)n(-c3nc(N4CCC(C(N)=O)C4)ccc3C(F)(F)F)n2C)c(F)c1` (stereo not drawn) [Example 305, 1-{6-[3-(2,6-difluoro-4-methoxyphenyl)-4-[4-(difluoromethoxy)benzamido]-2-methyl-5-oxo-2,5-dihydro-1H-pyrazol-1-yl]-5-(trifluoromethyl)pyridin-2-yl}pyrrolidine-3-carboxamide], the results for the pEC50 at human FPR2 and at human FPR1 were 8.70 and 5.41, respectively.
As for `COc1cc(F)c(-c2c(NC(=O)c3ccc(OC(F)F)cc3)c(=O)n(-c3nc(N4CCN5CCC[C@@H]5C4)ccc3C(F)(F)F)n2C)c(F)c1` [Example 306, N-(2-{6-[(8aR)-octahydropyrrolo[1,2-a]piperazin-2-yl]-3-(trifluoromethyl)pyridin-2-yl}-5-(2,6-difluoro-4-methoxyphenyl)-1-methyl-3-oxo-2,3-dihydro-1H-pyrazol-4-yl)-4-(difluoromethoxy)benzamide], the pEC50 on human FPR2 is 9.00; at human FPR1 it was 5.64.
Consider `COc1cc(F)c(-c2c(NC(=O)c3ccc(OC(F)F)cc3)c(=O)n(-c3nc(N4CC(C)(O)C4)ccc3Cl)n2C)c(F)c1` [Example 307, N-{2-[3-chloro-6-(3-hydroxy-3-methylazetidin-1-yl)pyridin-2-yl]-5-(2,6-difluoro-4-methoxyphenyl)-1-methyl-3-oxo-2,3-dihydro-1H-pyrazol-4-yl}-4-(difluoromethoxy)benzamide], for which the pEC50 on human FPR2 was 8.30; at human FPR1, under 5.00.
Turning to `COc1cc(F)c(-c2c(NC(=O)c3ccc(OC(F)F)cc3)c(=O)n(-c3nc(N4CC5(CC(O)C5)C4)ccc3C(F)(F)F)n2C)c(F)c1` [Example 308, N-[5-(2,6-difluoro-4-methoxyphenyl)-2-(6-{6-hydroxy-2-azaspiro[3.3]heptan-2-yl}-3-(trifluoromethyl)pyridin-2-yl)-1-methyl-3-oxo-2,3-dihydro-1H-pyrazol-4-yl]-4-(difluoromethoxy)benzamide], the pEC50 at human FPR2 was 8.52; on human FPR1, under 5.00.
In the case of `CCc1ccc(OCC(C)(C)O)nc1-n1c(=O)c(NC(=O)c2ccc(OC(F)F)cc2)c(-c2c(F)cc(OC)cc2F)n1C` [Example 309, N-[5-(2,6-difluoro-4-methoxyphenyl)-2-[3-ethyl-6-(2-hydroxy-2-methylpropoxy)pyridin-2-yl]-1-methyl-3-oxo-2,3-dihydro-1H-pyrazol-4-yl]-4-(difluoromethoxy)benzamide], the pEC50 was 8.00 on human FPR2 and 5.66 at human FPR1.
On the same counts, the results for `CCc1ccc(N2CC(C)(O)C2)nc1-n1c(=O)c(NC(=O)c2ccc(OC(F)F)cc2)c(-c2c(F)cc(OC)cc2F)n1C` [Example 310, N-[5-(2,6-difluoro-4-methoxyphenyl)-2-[3-ethyl-6-(3-hydroxy-3-methylazetidin-1-yl)pyridin-2-yl]-1-methyl-3-oxo-2,3-dihydro-1H-pyrazol-4-yl]-4-(difluoromethoxy)benzamide] are 8.15 and under 5.00.
For the compound `COc1cc(F)c(-c2c(NC(=O)c3ccc(OC(F)F)cc3)c(=O)n(-c3nc(N4CC(C)(O)C4)ccc3C#N)n2C)c(F)c1` [Example 311, N-{2-[3-cyano-6-(3-hydroxy-3-methylazetidin-1-yl)pyridin-2-yl]-5-(2,6-difluoro-4-methoxyphenyl)-1-methyl-3-oxo-2,3-dihydro-1H-pyrazol-4-yl}-4-(difluoromethoxy)benzamide], the results for the pEC50 at human FPR2 and at human FPR1 were 8.30 and under 5.00, respectively.
As to `COc1cc(F)c(-c2c(NC(=O)c3ccc(OC(F)F)cc3)c(=O)n(-c3cccc(N4CC(C)(O)C4)n3)n2C)c(F)c1` [Example 312, N-[5-(2,6-difluoro-4-methoxyphenyl)-2-[6-(3-hydroxy-3-methylazetidin-1-yl)pyridin-2-yl]-1-methyl-3-oxo-2,3-dihydro-1H-pyrazol-4-yl]-4-(difluoromethoxy)benzamide], the pEC50 at human FPR2 is 7.92; on human FPR1 it was 5.70.
`COc1ccc(-c2c(NC(=O)c3ccc(OC(F)F)cc3)c(=O)n(-c3nc(N4CCC(C)(O)CC4)ccc3C(F)(F)F)n2C)c(F)c1` [Example 313, 4-(difluoromethoxy)-N-[5-(2-fluoro-4-methoxyphenyl)-2-[6-(4-hydroxy-4-methylpiperidin-1-yl)-3-(trifluoromethyl)pyridin-2-yl]-1-methyl-3-oxo-2,3-dihydro-1H-pyrazol-4-yl]benzamide]: the negative-log EC50 (pEC50) at human FPR2 was 9.00; at human FPR1, 6.68.
The corresponding values for `COc1cc(F)c(-c2c(NC(=O)c3ccc(OC(F)F)cc3)c(=O)n(-c3nc(N4CCC(C)(O)CC4)ccc3C(F)(F)F)n2C)c(F)c1` [Example 314, N-[5-(2,6-difluoro-4-methoxyphenyl)-2-[6-(4-hydroxy-4-methylpiperidin-1-yl)-3-(trifluoromethyl)pyridin-2-yl]-1-methyl-3-oxo-2,3-dihydro-1H-pyrazol-4-yl]-4-(difluoromethoxy)benzamide] are 9.00 and 5.57.
On the same counts, the results for `COc1cccc(-n2c(=O)c(NC(=O)c3ccc(OC(F)F)cc3)c(-c3ccc(OC(F)F)cc3)n2C)n1` [Example 315, 4-(difluoromethoxy)-N-{5-[4-(difluoromethoxy)phenyl]-2-(6-methoxypyridin-2-yl)-1-methyl-3-oxo-2,3-dihydro-1H-pyrazol-4-yl}benzamide] are 7.52 and 6.54.
The corresponding values for `COc1cc(F)c(-c2c(NC(=O)c3ccc(OC(F)F)cc3)c(=O)n(-c3nc(C4CCN(S(C)(=O)=O)CC4)ccc3Cl)n2C)c(F)c1` [Example 316, N-{2-[3-chloro-6-(1-methanesulfonylpiperidin-4-yl)pyridin-2-yl]-5-(2,6-difluoro-4-methoxyphenyl)-1-methyl-3-oxo-2,3-dihydro-1H-pyrazol-4-yl}-4-(difluoromethoxy)benzamide] are 8.70 and under 5.30.
